From patent publication US5593984A, “Cephalosporin derivatives” (Yuhan Corporation, priority 1992, dated 1997)
Values after ≈ are worked out from the molar mass of the structure shown.

Legend:
Assay type in all cases: cell-based
K. pneumoniae NCTC 9632 = assay: MIC by agar dilution, K. pneumoniae NCTC 9632; details: Klebsiella pneumoniae, NCTC9632, 17 h; K. pneumoniae NCTC 9632; agar dilution, Mueller-Hinton agar; read-out: Minimal Inhibitory Concentration (MIC)
Outline: (§1)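 MIC is the endpoint, obtained by agar dilution after 17±1 hours at 35°-37° C. on Mueller-Hinton agar containing doubling compound concentrations; strains inoculated at 10^6 CFU per ml.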

[1] = system: Ps. aeruginosa NCTC 10490; assay: MIC by agar dilution, Ps. aeruginosa NCTC 10490; details: Pseudomonas aeruginosa, NCTC10490, 17 h, Mueller-Hinton agar, read-out: Minimal Inhibitory Concentration (MIC)
Outline: as §1

Staph. aureus Smith = assay: MIC by agar dilution, Staph. aureus Smith; details: Staphylococcus aureus, 17 h, Mueller-Hinton agar, read-out: Minimal Inhibitory Concentration (MIC)
Outline: as §1

M. morganii DY-1 = assay: MIC by agar dilution, M. morganii DY-1; details: Morganella morganii, DY1, 17 h; M. morganii DY-1; agar dilution, Mueller-Hinton agar; read-out: Minimal Inhibitory Concentration (MIC)
Outline: as §1

E. coli DY-1 = assay: MIC by agar dilution, E. coli DY-1; details: Escherichia coli, DY1, 17 h; E. coli DY-1; agar dilution, Mueller-Hinton agar; read-out: Minimal Inhibitory Concentration (MIC)
Outline: as §1

Ent. aerogenes IFO 12979 = assay: MIC by agar dilution, Ent. aerogenes IFO 12979; details: Klebsiella aerogenes, IFO12979, 17 h, Mueller-Hinton agar, read-out: Minimal Inhibitory Concentration (MIC)
Outline: as §1

[2] = system: S. epidermidis ATCC 12228; assay: MIC by agar dilution, S. epidermidis ATCC 12228; details: Staphylococcus epidermidis, ATCC12228, 17 h; S. epidermidis ATCC 12228; agar dilution, Mueller-Hinton agar; read-out: Minimal Inhibitory Concentration (MIC)
Outline: as §1

P. vulgaris NCTC 8313 = assay: MIC by agar dilution, P. vulgaris NCTC 8313; details: Proteus vulgaris, NCTC8313, 17 h; P. vulgaris NCTC 8313; agar dilution, Mueller-Hinton agar; read-out: Minimal Inhibitory Concentration (MIC)
Outline: as §1

Ent. cloacae IFO 13535 = assay: MIC by agar dilution, Ent. cloacae IFO 13535; details: Enterobacter cloacae, IFO13535, 17 h; Ent. cloacae IFO 13535; agar dilution, Mueller-Hinton agar; read-out: Minimal Inhibitory Concentration (MIC)
Outline: as §1

Prov. stuartii IFO 12930 = assay: MIC by agar dilution, Prov. stuartii IFO 12930; details: Providencia stuartii, IFO12930, 17 h, Mueller-Hinton agar, read-out: Minimal Inhibitory Concentration (MIC)
Outline: as §1

Staph. aureus C-5113 = assay: MIC by agar dilution, Staph. aureus C-5113; details: Staphylococcus aureus, C5113, 17 h, Mueller-Hinton agar, read-out: Minimal Inhibitory Concentration (MIC)
Outline: as §1

[3] = system: Ps. aeruginosa ATCC 10145; assay: MIC by agar dilution, Ps. aeruginosa ATCC 10145; details: Pseudomonas aeruginosa, ATCC10145, 17 h, Mueller-Hinton agar, read-out: Minimal Inhibitory Concentration (MIC)
Outline: as §1

Staph. aureus C-57 = assay: MIC by agar dilution, Staph. aureus C-57; details: Staphylococcus aureus, C57, 17 h, Mueller-Hinton agar, read-out: Minimal Inhibitory Concentration (MIC)
Outline: as §1

Staph. aureus ATCC 6538P = assay: MIC by agar dilution, Staph. aureus ATCC 6538P; details: Staphylococcus aureus, ATCC6538P, 17 h; Staph. aureus ATCC 6538P; agar dilution, Mueller-Hinton agar; read-out: Minimal Inhibitory Concentration (MIC)
Outline: as §1

E. coli NIHJ JC-2 = assay: MIC by agar dilution, E. coli NIHJ JC-2; details: Escherichia coli, NIHJJC2, 17 h; E. coli NIHJ JC-2; agar dilution, Mueller-Hinton agar; read-out: Minimal Inhibitory Concentration (MIC)
Outline: as §1

E. coli No. 29 = assay: MIC by agar dilution, E. coli No. 29; details: Escherichia coli, 17 h; E. coli No. 29; agar dilution, Mueller-Hinton agar; read-out: Minimal Inhibitory Concentration (MIC)
Outline: as §1

B. subtilis ATCC 6633 = assay: MIC by agar dilution, B. subtilis ATCC 6633; details: Bacillus subtilis, ATCC6633, 17 h; B. subtilis ATCC 6633; agar dilution, Mueller-Hinton agar; read-out: Minimal Inhibitory Concentration (MIC)
Outline: as §1

Staph. aureus C-5216 = assay: MIC by agar dilution, Staph. aureus C-5216; details: Staphylococcus aureus, C5216, 17 h, Mueller-Hinton agar, read-out: Minimal Inhibitory Concentration (MIC)
Outline: as §1

Ps. aeruginosa DY-2 = assay: MIC by agar dilution, Ps. aeruginosa DY-2; details: Pseudomonas aeruginosa, DY2, 17 h; Ps. aeruginosa DY-2; agar dilution, Mueller-Hinton agar; read-out: Minimal Inhibitory Concentration (MIC)
Outline: as §1

[4] = system: Ser. marcescens IFO 12648; assay: MIC by agar dilution, Ser. marcescens IFO 12648; details: Serratia marcescens, IFO12648, 17 h; Ser. marcescens IFO 12648; agar dilution, Mueller-Hinton agar; read-out: Minimal Inhibitory Concentration (MIC)
Outline: as §1

| SMILES | MIC (K. pneumoniae NCTC 9632) [µg/mL] | MIC [1] [µg/mL] | MIC (Staph. aureus Smith) [µg/mL] | MIC (M. morganii DY-1) [µg/mL] | MIC (E. coli DY-1) [µg/mL] | MIC (Ent. aerogenes IFO 12979) [µg/mL] | MIC [2] [µg/mL] | MIC (P. vulgaris NCTC 8313) [µg/mL] | MIC (Ent. cloacae IFO 13535) [µg/mL] | MIC (Prov. stuartii IFO 12930) [µg/mL] | MIC (Staph. aureus C-5113) [µg/mL] | MIC [3] [µg/mL] | MIC (Staph. aureus C-57) [µg/mL] | MIC (Staph. aureus ATCC 6538P) [µg/mL] | MIC (E. coli NIHJ JC-2) [µg/mL] | MIC (E. coli No. 29) [µg/mL] | MIC (B. subtilis ATCC 6633) [µg/mL] | MIC (Staph. aureus C-5216) [µg/mL] | MIC (Ps. aeruginosa DY-2) [µg/mL] | MIC [4] [µg/mL] |
| --- | --- | --- | --- | --- | --- | --- | --- | --- | --- | --- | --- | --- | --- | --- | --- | --- | --- | --- | --- | --- |
| CO/N=C(\C(=O)N[C@@H]1C(=O)N2C(C(=O)[O-])=C(C[n+]3ccn4c(C(C)=O)cc(Cl)c4c3)CS[C@H]12)c1csc(N)n1 [Ex. 34, 7-β-[(Z)-2-(2-aminothiazol-4-yl)2-methoxyiminoacetamido]-3-(6-acetyl-8-chloropyrrolo[1,2-a]pyrazinium-2-yl)methyl-3-cephem-4-carboxylate] | 0.025 (≈ 0.0424 µM) | 3.13 (≈ 5.3 µM) | 1.56 (≈ 2.64 µM) | 0.05 (≈ 0.0847 µM) | 0.025 (≈ 0.0424 µM) | 0.025 (≈ 0.0424 µM) | 0.1 (≈ 0.169 µM) | 0.012 (≈ 0.0203 µM) | 0.1 (≈ 0.169 µM) | 0.025 (≈ 0.0424 µM) | 0.78 (≈ 1.32 µM) | 6.25 (≈ 10.6 µM) | 25 (≈ 42.4 µM) | 0.78 (≈ 1.32 µM) | 0.05 (≈ 0.0847 µM) | 0.025 (≈ 0.0424 µM) | 0.39 (≈ 0.661 µM) | 0.78 (≈ 1.32 µM) | 25 (≈ 42.4 µM) | 0.05 (≈ 0.0847 µM) |
| CCO/N=C(\C(=O)N[C@@H]1C(=O)N2C(C(=O)[O-])=C(C[n+]3ccn4c(C(C)=O)cc(Cl)c4c3)CS[C@H]12)c1csc(N)n1 [Ex. 35, 7-β-[(Z)-2-(2-aminothiazol-4-yl)-2-ethoxyiminoacetamido]-3-(6-acetyl-8-chloropyrrolo[1,2-a]pyrazinium-2-yl)methyl-3-cephem-4-carboxylate] | 0.1 (≈ 0.166 µM) | 3.13 (≈ 5.18 µM) | 1.56 (≈ 2.58 µM) | 0.2 (≈ 0.331 µM) | 0.025 (≈ 0.0414 µM) | 0.05 (≈ 0.0828 µM) | 0.1 (≈ 0.166 µM) | 0.012 (≈ 0.0199 µM) | 0.39 (≈ 0.646 µM) | 0.1 (≈ 0.166 µM) | 1.56 (≈ 2.58 µM) | 6.25 (≈ 10.3 µM) | 25 (≈ 41.4 µM) | 1.56 (≈ 2.58 µM) | 0.1 (≈ 0.166 µM) | 0.05 (≈ 0.0828 µM) | 0.39 (≈ 0.646 µM) | 1.56 (≈ 2.58 µM) | 25 (≈ 41.4 µM) | 0.2 (≈ 0.331 µM) |
| CO/N=C(\C(=O)N[C@@H]1C(=O)N2C(C(=O)[O-])=C(C[n+]3ccn4c(C(C)C)cc(C(C)C)c4c3)CS[C@H]12)c1csc(N)n1 [Ex. 36, 7-β-[(Z)-2-(2-aminothiazol-4-yl)-2-methoxyiminoacetamido]-3-(6,8-diisopropyl-pyrrolo[1,2-a]pyrazinium-2-yl)methyl-3-cephem-4-carboxylate] | 0.78 (≈ 1.3 µM) | 25 (≈ 41.8 µM) | 3.13 (≈ 5.24 µM) | 1.56 (≈ 2.61 µM) | 0.1 (≈ 0.167 µM) | 0.2 (≈ 0.335 µM) | 0.2 (≈ 0.335 µM) | 0.05 (≈ 0.0837 µM) | 3.13 (≈ 5.24 µM) | 0.2 (≈ 0.335 µM) | 1.56 (≈ 2.61 µM) | 50 (≈ 83.7 µM) | 100 (≈ 167 µM) | 0.39 (≈ 0.652 µM) | 0.78 (≈ 1.3 µM) | 0.2 (≈ 0.335 µM) | 0.2 (≈ 0.335 µM) | 6.25 (≈ 10.5 µM) | 100 (≈ 167 µM) | 0.78 (≈ 1.3 µM) |

Results, then the compound that gave them:

| MIC (K. pneumoniae NCTC 9632) [µg/mL] | MIC [1] [µg/mL] | MIC (Staph. aureus Smith) [µg/mL] | MIC (M. morganii DY-1) [µg/mL] | MIC (E. coli DY-1) [µg/mL] | MIC (Ent. aerogenes IFO 12979) [µg/mL] | MIC [2] [µg/mL] | MIC (P. vulgaris NCTC 8313) [µg/mL] | MIC (Ent. cloacae IFO 13535) [µg/mL] | MIC (Prov. stuartii IFO 12930) [µg/mL] | MIC (Staph. aureus C-5113) [µg/mL] | MIC [3] [µg/mL] | MIC (Staph. aureus C-57) [µg/mL] | MIC (Staph. aureus ATCC 6538P) [µg/mL] | MIC (E. coli NIHJ JC-2) [µg/mL] | MIC (E. coli No. 29) [µg/mL] | MIC (B. subtilis ATCC 6633) [µg/mL] | MIC (Staph. aureus C-5216) [µg/mL] | MIC (Ps. aeruginosa DY-2) [µg/mL] | MIC [4] [µg/mL] | SMILES |
| --- | --- | --- | --- | --- | --- | --- | --- | --- | --- | --- | --- | --- | --- | --- | --- | --- | --- | --- | --- | --- |
| 0.05 (≈ 0.0897 µM) | 0.78 (≈ 1.4 µM) | 1.56 (≈ 2.8 µM) | 0.025 (≈ 0.0448 µM) | ≤ 0.006 | 0.025 (≈ 0.0448 µM) | 0.2 (≈ 0.359 µM) | 0.012 (≈ 0.0215 µM) | 0.2 (≈ 0.359 µM) | 0.025 (≈ 0.0448 µM) | 6.25 (≈ 11.2 µM) | 1.56 (≈ 2.8 µM) | 25 (≈ 44.8 µM) | 0.2 (≈ 0.359 µM) | 0.05 (≈ 0.0897 µM) | 0.012 (≈ 0.0215 µM) | 0.1 (≈ 0.179 µM) | 3.13 (≈ 5.61 µM) | 3.13 (≈ 5.61 µM) | 0.05 (≈ 0.0897 µM) | CCON=C(C(=O)NC1C(=O)N2C(C(=O)[O-])=C(C[n+]3ccn4ccc(CO)c4c3)CSC12)c1csc(N)n1 (stereo not drawn) [Ex. 31, 7-β-[(Z)-2-(2-aminothiazol-4-yl)2-ethoxyiminoacetamido]-3-(8-hydroxymethylpyrrolo[1,2-a]pyrazinium-2-yl)methyl-3-cephem-4-carboxylate] |
| 0.025 (≈ 0.0445 µM) | 0.2 (≈ 0.356 µM) | 0.78 (≈ 1.39 µM) | 0.025 (≈ 0.0445 µM) | ≤ 0.006 | 0.025 (≈ 0.0445 µM) | 0.1 (≈ 0.178 µM) | 0.012 (≈ 0.0214 µM) | 0.1 (≈ 0.178 µM) | 0.012 (≈ 0.0214 µM) | 3.13 (≈ 5.57 µM) | 0.78 (≈ 1.39 µM) | 25 (≈ 44.5 µM) | 0.2 (≈ 0.356 µM) | ≤ 0.006 | ≤ 0.006 | 0.1 (≈ 0.178 µM) | 1.56 (≈ 2.78 µM) | 3.13 (≈ 5.57 µM) | 0.05 (≈ 0.089 µM) | Nc1nc(/C(=N/OCF)C(=O)N[C@@H]2C(=O)N3C(C(=O)[O-])=C(C[n+]4ccn5ccc(CO)c5c4)CS[C@H]23)cs1 [Ex. 32, 7-β-[(Z)-2-(2-aminothiazol-4-yl)2-fluoromethoxyiminoacetamido]-3-(8-hydroxymethylpyrrolo[1,2-a]pyrazinium-2-yl)methyl-3-cephem-4-carboxylate] |
| 0.012 (≈ 0.0219 µM) | 0.2 (≈ 0.365 µM) | 0.2 (≈ 0.365 µM) | ≤ 0.006 | ≤ 0.006 | 0.025 (≈ 0.0456 µM) | 0.05 (≈ 0.0912 µM) | ≤ 0.006 | 0.05 (≈ 0.0912 µM) | ≤ 0.006 | 0.78 (≈ 1.42 µM) | 0.78 (≈ 1.42 µM) | 25 (≈ 45.6 µM) | 0.2 (≈ 0.365 µM) | 0.012 (≈ 0.0219 µM) | ≤ 0.006 | 0.2 (≈ 0.365 µM) | 0.2 (≈ 0.365 µM) | 1.56 (≈ 2.85 µM) | 0.012 (≈ 0.0219 µM) | CO/N=C(\C(=O)N[C@@H]1C(=O)N2C(C(=O)[O-])=C(C[n+]3ccn4ccc(Cl)c4c3)CS[C@H]12)c1csc(N)n1 [Ex. 33, 7-β-[(Z)-2-(2-aminothiazol-4-yl)2-methoxyiminoacetamido]-3-(8-chloropyrrolo[1,2-a]pyrazinium-2-yl)methyl-3-cephem-4-carboxylate] |
